Measurements published in patent US11807625B2, “Capsid inhibitors for the prevention of HIV” (Gilead Sciences, Inc., priority 2019, dated 2023).
Values joined by “and” are separate entries in the source; they are usually repeats but may differ in a detail not shown here. Equal values may be shown once.

Tests used:
rhesus plasma protein = assay: Competitive equilibrium dialysis (EQDS) assay, rhesus plasma protein binding; type: in vitro ADME; conditions: EC95 adjusted for rhesus plasma protein binding (competitive equilibrium dialysis)
Method: The mean 95% effective concentration (EC95) of 1.91±0.16 nM for a compound of Formula (Ib) (“Compound Ib”) was determined using a 7-day antiviral assay (p24 ELISA endpoint) in rhesus peripheral blood mononuclear cells (PBMCs) infected with SHIV-162P3. A competitive equilibrium dialysis assay was used to quantify rhesus plasma protein binding to Compound Ib, resulting in an inhibitory quotient (IQ) equal to Compound Ib plasma concentrations divided by a mean rhesus plasma protein-binding-adjusted EC95 (paEC95) value of 30.2±2.5 nM.
Equilibrium dialysis shift (EQDS) assay details: Rhesus plasma protein binding to a compound of Formula (Ib) (“Compound Ib”) was determined by competitive equilibrium dialysis. Rhesus plasma (10%) was spiked with Compound Ib (2 μM) and blank RPMI cell culture medium containing 2% fetal bovine serum (CCM) were placed into opposite sides of assembled dialysis cells, and incubations were performed in triplicate. After a 24-h equilibration period at 37° C., samples were corrected for the matrix effect, quenched, and quantified by liquid chromatography tandem mass spectrometry (LC-MS/MS) with electrospray ionization in positive mode and multiple-reaction monitoring (MRM). The fold change value in 100% rhesus plasma was then calculated using the plasma/CCM ratio after correcting for the sample dilution factor and the percent free fraction in the matrix.

[1] = Plasma concentration vs. time profile of Compound Ib in rhesus after single subcutaneous dose (SHIV challenge study); type: in vivo, rhesus macaques
Method: Mean±s.d. values are shown.
PK analysis details: Rhesus plasma samples were stored frozen at −80° C. and analyzed using high resolution mass spectrometry (HRMS) with electrospray ionization in the positive mode. Quantification was performed using an accurate mass ([M+H]+) of 958.1853 for a compound of Formula (Ib) (“Compound Ib”) and 758.3270 for the internal standard, respectively.

SHIV = assay: PrEP efficacy in rhesus repeat intrarectal SHIV challenge model, plasma viral load by qRT-PCR; type: in vivo, rhesus macaques; conditions: for Plasma SHIV: rhesus, individual animals
Method: The PrEP efficacy a compound of Formula (Ib) in rhesus was evaluated using a repeat intrarectal (IR) challenge model.
This study also established a correlation between exposure and protection using a single high-dose administration of a compound of Formula (Ib) vs. placebo, followed by multiple weekly IR challenges until infection occured. In this study, multiple challenges overlapped with clinically-relevant drug levels. The supratherapeutic IQs (inhibitory quotients) were assessed to maximize protection and achieve proof-of-concept in case rectal tissue levels were much lower than in plasma. Lower doses of a compound of Formula (Ib), or a pharmaceutically acceptable salt thereof, were assessed to capture more challenges at clinically relevant exposures, reducing the number of IR challenges, and facilitating a drug washout phase. The washout phase lasted for at least 20 weeks. In some embodiments, the washout phase lasted for 20-25 weeks. The washout phase of these studies was important to enable the administered drug concentrations to decline sufficiently below those that were expected to be clinically suppressive in order to confirm that animals that remained aviremic in the study did so because they were protected from infection as opposed to being infected following one or more of the viral challenges but remaining suppressed by prolonged therapeutic concentrations of the long-acting drug in plasma and/or tissue compartments.
FIG. 3 is a schematic of the study using a compound of Formula (Ib) in adult rhesus macaques (1:1 male/female ratio). Eight animals per group were treated with a single dose of placebo control, 150 mg/kg of a compound of Formula (Ib) (“Compound 1b”) or 300 mg/kg of a compound of Formula (Ib) (“Compound 1b”) on week 0 and allowed to wash out over time. All animals were challenged intrarectally with SHIV weekly beginning on week 1 until detectable viremia or up to a maximum of 15 challenges. SHIV challenge titer was increased over time from 10 TCID50 to 100 TCID50 through week 15 as depicted. Animal SHIV infection rate was assessed by weekly plasma viral load monitoring by qRT-PCR through study week 20. The protective efficacy of a compound of Formula (Ib) (“Compound 1b”) was established by comparing to infection rate observed in the placebo control group using the Cox proportional hazards model analysis.
Viral infection was scored one week after each SHIV challenge using a quantitative RT-PCR assay. Infected animals were defined as having a viral load >200 copies per mL plasma and the corresponding plasma viral load values are bolded.
Viral load measurements details: RNA was extracted from plasma using a QIAcube HT and the QIAcube 96 Cador pathogen HT kit (Qiagen). Gag RNA standards were generated using the AmpliCapMax™ T7 High Yield Message Maker Kit (Cell Script) and purified with RNA clean and concentrator kit (Zymo Research). Log dilutions of RNA were included with each assay run. Reverse transcription of both standards and samples was performed using Superscript III VILO (Invitrogen). Quantitative PCR was performed using the Quantstudio 6 Flex system with TaqMan™ Fast Advanced Master Mix (Applied Biosystems). Primer sequences were F-[…] (SEQ ID NO. 1) and R-[…] (SEQ ID NO. 2). The probe sequence was […] (SEQ ID NO. 3), and probe was labeled with FAM and BHQ (Biosearch Technologies). Viral loads were calculated as gag copies per mL.

Structure (SMILES): CC(C)(C#Cc1ccc(-c2ccc(Cl)c3c(NS(=O)(=O)C4CC4)nn(CC(F)F)c23)c([C@H](Cc2cc(F)cc(F)c2)NC(=O)Cn2nc(C(F)F)c3c2C(F)(F)[C@@H]2C[C@H]32)n1)S(C)(=O)=O [Compound Ib, N—((S)-1-(3-(4-chloro-3-(cyclopropanesulfonamido)-1-(2,2-difluoroethyl)-1H-indazol-7-yl)-6-(3-methyl-3-(methylsulfonyl)but-1-yn-1-yl)pyridin-2-yl)-2-(3,5-difluorophenyl)ethyl)-2-((3b S,4aR)-3-(difluoromethyl)-5,5-difluoro-3b,4,4a,5-tetrahydro-1H-cyclopropa[3,4]cyclopenta[1,2-c]pyrazol-1-yl)acetamide]
- mean rhesus plasma protein-binding-adjusted EC95 (paEC95) (rhesus plasma protein): 30.2 ± 2.5 nM
- Plasma Compound Ib Concentrations ([1]; 150 mg/kg SC day 0, individual animals, study week 1, SHIV dose 10 x TCID50): 3112 nM and 2516 nM and 762 nM and 882 nM
- Plasma Compound Ib Concentrations ([1]; 150 mg/kg SC day 0, individual animals, study week 2, SHIV dose 10 x TCID50): 2108 nM and 2027 nM and 1059 nM and 1219 nM
- Plasma Compound Ib Concentrations ([1]; 150 mg/kg SC day 0, individual animals, study week 3, SHIV dose 10 x TCID50): 750 nM and 1371 nM and 334 nM and 209 nM
- Plasma Compound Ib Concentrations ([1]; 150 mg/kg SC day 0, individual animals, study week 4, SHIV dose 10 x TCID50): 538 nM and 448 nM and 225 nM and 165 nM
- Plasma Compound Ib Concentrations ([1]; 150 mg/kg SC day 0, individual animals, study week 5, SHIV dose 10 x TCID50): 333 nM and 449 nM and 141 nM and 113 nM
- Plasma Compound Ib Concentrations ([1]; 150 mg/kg SC day 0, individual animals, study week 6, SHIV dose 10 x TCID50): 164 nM and 313 nM and 82 nM and 78 nM
- Plasma Compound Ib Concentrations ([1]; 150 mg/kg SC day 0, individual animals, study week 7, SHIV dose 10 x TCID50): 139 nM and 250 nM and 69 nM and 46 nM
- Plasma Compound Ib Concentrations ([1]; 150 mg/kg SC day 0, individual animals, study week 8, SHIV dose 10 x TCID50): 118 nM and 160 nM and 80 nM and 56 nM and 82 nM
- Plasma Compound Ib Concentrations ([1]; 150 mg/kg SC day 0, individual animals, study week 9, SHIV dose 33 x TCID50): 54 nM and 140 nM and 58 nM and 14 nM
- Plasma Compound Ib Concentrations ([1]; 300 mg/kg SC day 0, individual animals, study week 1, SHIV dose 10 x TCID50): 5528 nM and 3174 nM and 2251 nM and 1572 nM and 7818 nM and 2215 nM and 1944 nM
- Plasma Compound Ib Concentrations ([1]; 300 mg/kg SC day 0, individual animals, study week 2, SHIV dose 10 x TCID50): 1944 nM and 2466 nM and 1332 nM and 2066 nM and 3983 nM and 1949 nM and 1830 nM
- Plasma Compound Ib Concentrations ([1]; 300 mg/kg SC day 0, individual animals, study week 3, SHIV dose 10 x TCID50): 942 nM and 1003 nM and 894 nM and 508 nM and 1654 nM and 632 nM and 742 nM
- Plasma Compound Ib Concentrations ([1]; 300 mg/kg SC day 0, individual animals, study week 4, SHIV dose 10 x TCID50): 863 nM and 664 nM and 530 nM and 359 nM and 725 nM and 416 nM and 362 nM
- Plasma Compound Ib Concentrations ([1]; 300 mg/kg SC day 0, individual animals, study week 5, SHIV dose 10 x TCID50): 402 nM and 487 nM and 395 nM and 266 nM and 523 nM and 268 nM and 377 nM
- Plasma Compound Ib Concentrations ([1]; 300 mg/kg SC day 0, individual animals, study week 6, SHIV dose 10 x TCID50): 370 nM and 282 nM and 382 nM and 161 nM and 242 nM and 273 nM and 350 nM
- Plasma Compound Ib Concentrations ([1]; 300 mg/kg SC day 0, individual animals, study week 7, SHIV dose 10 x TCID50): 180 nM (2×) and 261 nM and 339 nM and 132 nM and 158 nM and 307 nM
- Plasma Compound Ib Concentrations ([1]; 300 mg/kg SC day 0, individual animals, study week 8, SHIV dose 10 x TCID50): 209 nM and 240 nM and 319 nM and 140 nM and 378 nM and 155 nM and 226 nM
- Plasma Compound Ib Concentrations ([1]; 300 mg/kg SC day 0, individual animals, study week 9, SHIV dose 33 x TCID50): 127 nM and 131 nM and 83 nM and 88 nM and 177 nM and 104 nM and 122 nM
- concentration at 12 weeks ([1]; both sexes, rhesus monkey, plasma, subcutaneous, 300 mg/kg, 300 mg/kg SC day 0, individual animals, study week 12, SHIV dose 100 x TCID50, read-out: Plasma Compound Ib Concentrations): 83 nM
- concentration at 15 weeks ([1]; both sexes, rhesus monkey, plasma, subcutaneous, 300 mg/kg, 300 mg/kg SC day 0, individual animals, study week 15, SHIV dose 100 x TCID50, read-out: Plasma Compound Ib Concentrations): 45 nM
- Plasma SHIV (SHIV; 150 mg/kg SC day 0, study week 1, intrarectal SHIV dose 10 x TCID50): <200 copies/mL
- Plasma SHIV (SHIV; 150 mg/kg SC day 0, study week 2, intrarectal SHIV dose 10 x TCID50): <200 copies/mL
- Plasma SHIV (SHIV; 150 mg/kg SC day 0, study week 3, intrarectal SHIV dose 10 x TCID50): <200 copies/mL
- Plasma SHIV (SHIV; 150 mg/kg SC day 0, study week 4, intrarectal SHIV dose 10 x TCID50): <200 copies/mL
- Plasma SHIV (SHIV; 150 mg/kg SC day 0, study week 5, intrarectal SHIV dose 10 x TCID50): <200 copies/mL
- Plasma SHIV (SHIV; 150 mg/kg SC day 0, study week 6, intrarectal SHIV dose 10 x TCID50): <200 copies/mL
- Plasma SHIV (SHIV; 150 mg/kg SC day 0, study week 7, intrarectal SHIV dose 10 x TCID50): <200 copies/mL
- Plasma SHIV (SHIV; 150 mg/kg SC day 0, study week 8, intrarectal SHIV dose 10 x TCID50): <200 copies/mL
- Plasma SHIV (SHIV; 150 mg/kg SC day 0, study week 9, intrarectal SHIV dose 33 x TCID50): <200 copies/mL
- Plasma SHIV (SHIV; 150 mg/kg SC day 0, study week 10, intrarectal SHIV dose 33 x TCID50): <200 copies/mL
- Plasma SHIV (SHIV; 300 mg/kg SC day 0, study week 1, intrarectal SHIV dose 10 x TCID50): <200 copies/mL
- Plasma SHIV (SHIV; 300 mg/kg SC day 0, study week 2, intrarectal SHIV dose 10 x TCID50): <200 copies/mL
- Plasma SHIV (SHIV; 300 mg/kg SC day 0, study week 3, intrarectal SHIV dose 10 x TCID50): <200 copies/mL
- Plasma SHIV (SHIV; 300 mg/kg SC day 0, study week 4, intrarectal SHIV dose 10 x TCID50): <200 copies/mL
- Plasma SHIV (SHIV; 300 mg/kg SC day 0, study week 5, intrarectal SHIV dose 10 x TCID50): <200 copies/mL
- Plasma SHIV (SHIV; 300 mg/kg SC day 0, study week 6, intrarectal SHIV dose 10 x TCID50): <200 copies/mL
- Plasma SHIV (SHIV; 300 mg/kg SC day 0, study week 7, intrarectal SHIV dose 10 x TCID50): <200 copies/mL
- Plasma SHIV (SHIV; 300 mg/kg SC day 0, study week 8, intrarectal SHIV dose 10 x TCID50): <200 copies/mL
- Plasma SHIV (SHIV; 300 mg/kg SC day 0, study week 9, intrarectal SHIV dose 33 x TCID50): <200 copies/mL
- Plasma SHIV (SHIV; 300 mg/kg SC day 0, study week 10, intrarectal SHIV dose 33 x TCID50): <200 copies/mL
- infection in relation to Compound Ib plasma exposure (SHIV; 150 or 300 mg/kg single SC, weekly intrarectal challenges with escalating SHIV doses, FIGS. 6B, 6C): became infected only after the viral challenges were administered at Compound Ib plasma exposures well below the clinical IQ exposure range of 4 to 9
